Results: paper PMC4102551, “Screening and Characterisation of Antimicrobial Properties of Semisynthetic Betulin Derivatives” (PLoS ONE, 2014)
In brackets after ≈: the same amount, converted by molar mass. Several values for one entry are separate records, joined by “and”; a condition that tells them apart may be missing. Identical values can stand only once. Like-named read-outs stand apart in the source and are kept apart here.

What was measured:
[1] = tested on: B. subtilis, S. aureus, S. pyogenes, Staphylococcus saprophyticus, E. coli, P. aeruginosa and Shigella sonnei; design: method as in PMID 23684720; settings: ref 37; cited from earlier work
[2] = tested on: E. aerogenes ATCC 13048; assay: Broth microdilution assay, E. aerogenes; type: cell-based, Enterobacter aerogenes; settings: for inhibition at 50 µM: Klebsiella aerogenes, ATCC13048, 24 h, read-out: Inhibitory effect (%) E. aerogenes ATCC 13048
Outline: (§1)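 Broth microdilution per CLSI/EUCAST in Mueller Hinton II broth, 5×10^5 cfu/mL, 24 h at 37°C with agitation; growth by absorbance at 620 nm versus controls. Compounds first screened at 50 µM.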

[3] = tested on: S. aureus ATCC 25923; assay: Broth microdilution assay, S. aureus; type: cell-based, Staphylococcus aureus; settings: for inhibition at 50 µM: ATCC25923, 24 h
Outline: as §1

[4] = tested on: C. albicans ATCC 90028; assay: Broth microdilution assay, C. albicans; type: cell-based, Candida albicans
Outline: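 Candida albicans ATCC 90028 was grown on Sabouraud Dextrose Agar at 27°C for 16–18 h, then suspended in sterile 0.9% saline. Broth microdilution in clear 96-well plates mixed equal volumes of yeast suspension and diluted sample. Plates were incubated with agitation at 35°C for 48 h. Absorbance at 620 nm was read at 0, 24 and 48 h, and growth inhibition was expressed as a percentage relative to controls.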

[5] = tested on: S. aureus and E. faecalis; design: method as in PMID 18835348; settings: ref 36; cited from earlier work
[6] = tested on: Huh-7 cells; assay: in vitro; type: cell-based, human; settings: for Cytotoxicity (%) Huh-7 cells: 50 µM
Outline: (§2)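 Cytotoxicity read-out: intracellular ATP (CellTiter-Glo luminescence) in Huh-7 hepatoma cells seeded at 20000 cells/well, cultured overnight, then exposed to compounds for 24 h at 37°C in 5% FBS medium. Polymyxin B sulphate (15000 IU/mL) served as positive control.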

[7] = in vitro; type: cell-based, human; settings: human
Outline: as §2

[8] = tested on: P. aeruginosa ATCC 27853; assay: Broth microdilution assay, P. aeruginosa; type: cell-based, Pseudomonas aeruginosa
Outline: as §1

[9] = tested on: E. faecalis ATCC 29212; assay: Broth microdilution assay, E. faecalis; type: cell-based, Enterococcus faecalis; settings: for Inhibitory effect (%) E. faecalis ATCC 29212 / inhibition at 50 µM: 50 µM, 24 h, inhibition of growth, mean ± SD; for inhibition at 50 µM: ATCC29212, 24 h, read-out: Inhibitory effect (%) E. faecalis ATCC 29212
Outline: as §1

[10] = tested on: E. coli ATCC 25922; assay: Broth microdilution assay, E. coli; type: cell-based, Escherichia coli
Outline: as §1

[11] = tested on: S. aureus, E. coli, B. subtilis and Micrococcus luteus; design: method as in PMID 12601674, PMID 7500642, PMID 8590637; settings: ref 19, 33, 34; cited from earlier work
[12] = tested on: S. aureus; assay: Effect of BSA on antimicrobial activity (S. aureus microdilution assay); type: cell-based, Staphylococcus aureus; settings: compound at MIC90 6.25 µM
Description: The effect of bovine serum albumin (BSA) on antimicrobial activity was assessed by using the S. aureus microdilution assay in a similar manner as described above, but with increasing concentrations of BSA, ranging from 0.023 nM to 25 µM [23].
As described above, the antimicrobial activities of betulin derivatives seen in the microdilution assay were not detectable in the host-pathogen co-culture assay. Since the assay was performed in cell culture media containing 7.5% of fetal bovine serum, this was suspected to be the reason. Serum is rich in proteins, the most abundant of these being albumin. First, we performed the normal antibacterial assay by replacing the Mueller Hinton II broth with the cell culture media. […] The activity of compound 5 was clearly affected by the added BSA: at 24 nM concentration the activity was reduced by 50% and at concentration 390 nM the activity was completely lost. As a comparison, the concentration of albumin in human serum is typically 36–48 g/L which corresponds to […] concentration. Albumin is capable of interacting with many organic and inorganic molecules and functions as a key controller of intercellular fluxes [43]–[52]. Majority of therapeutic compounds are reversibly bound to plasma proteins, but the degree and nature of the binding differs. […]

[13] = tested on: E. coli; design: method as in earlier work; settings: ref 32; cited from earlier work
[14] = tested on: S. aureus; design: method as in earlier work; settings: ref 32; cited from earlier work
[15] = Storage stability of samples; type: physicochemical; settings: ambient temperature, air atmosphere, several years
Description: Betulin 1 is a stable compound, as we have not noticed any degradation of samples even if stored at ambient temperature under air atmosphere for several years. […] Thus, instability issues cannot be seen as a major concern regarding the betulin derivatives of this study.

[16] = tested on: P. aeruginosa; design: method as in earlier work; settings: ref 32; cited from earlier work
[17] = tested on: C. albicans; settings: cited from earlier work
[18] = tested on: Streptococcus pyogenes; design: method as in PMID 29255382; settings: ref 11; cited from earlier work
[19] = tested on: S. aureus infected HL cell line; assay: Host-pathogen co-culture assay; type: cell-based, Staphylococcus aureus; settings: at the highest concentration (range 0.024–100 µM), 3 days
Description: Briefly, HL cells used as the host cell were seeded at 40000 cells/well on black-walled microplates (Perkin Elmer) and incubated at 37°C, 5% CO2 and 95% humidity for 24 h. Cell monolayers were infected with 2000 cfus of S. aureus in RPMI 1640 media without antibiotics. Compounds were added to the media at different concentrations selected on the basis of the MIC determinations. […] Co-cultures were incubated for 3 days at 37°C, 5% CO2 and 95% humidity. Following the incubation period the cells were washed with 200 µL 6.7 mM PBS, pH 7.4, and finally, 200 µL 6.7 mM PBS, pH 7.4 containing 10 µg/mL fluorescein diacetate (FDA) was added to the cells to evaluate the survival of the host cells. After 45 min incubation at room temperature (RT), fluorescence was measured at 485 nm excitation and 538 nm emission with a Victor plate reader.
For studying simultaneously the efficacy and tolerability of antibacterial compounds, an assay based on co-culturing of a secondary human cell line (HL, derived originally from human lung) and a pathogen was used. […] In the assay, host cells are incubated in the presence of the test sample and are infected with bacteria. After 3 days of incubation, the host cell survival is determined using fluorescein diacetate to measure the viability of the host cells. […]

[20] = 50 µM, 24 h, inhibition of growth, mean ± SD
[21] = Staphylococcus aureus, 50 µM, 24 h, inhibition of growth, mean ± SD, read-out: Inhibitory effect (%) S. aureus ATCC 25923
[22] = 50 µM, 48 h at 35°C, inhibition of growth, mean ± SD
[23] = Candida albicans, ATCC90028, 48 h; read-out: Inhibitory effect (%) C. albicans ATCC 90028
[24] = 24 h exposure, ATP content, 5% FBS
[25] = Pseudomonas aeruginosa, ATCC27853, 24 h; read-out: Inhibitory effect (%) P. aeruginosa ATCC 27853
[26] = Escherichia coli, ATCC25922, 24 h; read-out: Inhibitory effect (%) E. coli ATCC 25922
[27] = 50 µM, 24 h exposure, ATP content, 5% FBS, read-out: Cytotoxicity (%) Huh-7 cells

## CC1(C)C=C2[C@H]3CC[C@@H]4[C@@]5(C)CC[C@H](O)C(C)(C)[C@@H]5CC[C@@]4(C)[C@]3(C)CC[C@@]2(C(=O)O)CC1 [MA, morolic acid]
[1]
  MIC against a panel of seven different bacterial species: ≥ 100 µg/mL

## C=C(C)[C@@H]1CC[C@]2(C(=O)O)CC[C@]3(C)[C@H](CC[C@@H]4[C@@]5(C)CC[C@H](O)C(C)(C)[C@@H]5CC[C@]43C)[C@@H]12 [Compound 19, betulinic acid]
[2]; [20]
  Inhibitory effect (%) E. aerogenes ATCC 13048: 38.2±3.0%
  inhibition at 50 µM: 38%
[3]; [21]
  inhibition at 50 µM: 22.8 ± 5.4%
[4]; [22]
  Inhibitory effect (%) C. albicans ATCC 90028: inactive
[4]; [23]
  inhibition at 50 µM: 21.6 ± 2.6%
[5]
  MIC against S. aureus and E. faecalis: > 256 µg/mL
[6]; [24]
  Cytotoxicity (%) Huh-7 cells: 31.6±15.7%
[7]; Huh-7 cells, 50 µM, 24 h exposure, ATP content, 5% FBS, read-out: Cytotoxicity (%) Huh-7 cells
  cytotoxicity at 24 h, 50 µM: 30%
[8]; [25]
  inhibition at 50 µM: 6.7 ± 1.4%
[9]
  Inhibitory effect (%) E. faecalis ATCC 29212: 55.9±5.0%
[9]; Enterococcus faecalis
  inhibition at 50 µM: 56%
[10]; [26]
  inhibition at 50 µM: 20.2 ± 6.1%
[11]
  Activity against S. aureus, E. coli, B. subtilis and Micrococcus luteus: inactive

## C=C(C)[C@@H]1CC[C@]2(COC(=O)c3ccccc3NC(C)=O)CC[C@]3(C)C(CCC4[C@@]5(C)CC[C@H](O)C(C)(C)C5CC[C@]43C)C12 (some centres unmarked) [Compound 5, 28-O-(N-acetylanthraniloyl)betulin]
[2]
  inhibition at 50 µM: 25.2 ± 2%
[3]; [20]
  Inhibitory effect (%) S. aureus ATCC 25923: 100.2±0.1%
[3]; Staphylococcus aureus, read-out: Inhibitory effect (%) S. aureus ATCC 25923, 50 µM, 24 h, inhibition of growth, mean ± SD
  inhibition at 50 µM: > 90%
[3]; Staphylococcus aureus, ATCC25923, read-out: MIC90 against S. aureus
  MIC90: 6.25 µM (≈ 3.77 µg/mL)
[4]; Candida albicans, ATCC90028, 48 h, read-out: Inhibitory effect (%) C. albicans ATCC 90028
  inhibition at 50 µM: 10 ± 5.2%
[6]; 100 µM, 24 h
  Effect on Huh-7 cell monolayer in ATP assay: completely destroyed the cell monolayer
[7]; [27]
  cytotoxicity at 24 h, 50 µM: 30 ± 3%
[7]; 24 h exposure, ATP assay, 5% FBS, read-out: IC50 cytotoxicity Huh-7 cells
  IC50 at 24 h: 56 µM
[8]; Pseudomonas aeruginosa, ATCC27853, 24 h, read-out: Inhibitory effect (%) P. aeruginosa ATCC 27853
  inhibition at 50 µM: 12.3 ± 2.3%
[9]
  Inhibitory effect (%) E. faecalis ATCC 29212: 98.5±0.2%
[9]; Enterococcus faecalis, ATCC29212, read-out: MIC90 against E. faecalis
  MIC90: 6.25 µM (≈ 3.77 µg/mL)
[10]; Escherichia coli, ATCC25922, 24 h, read-out: Inhibitory effect (%) E. coli ATCC 25922
  inhibition at 50 µM: 0.5 ± 3.1%
[12]
  BSA concentration at which the activity was completely lost: 390 nM
  BSA concentration at which the activity was reduced by 50%: 24 nM

## C=C(C)[C@@H]1CC[C@]2(CO)CC[C@]3(C)[C@H](CC[C@@H]4[C@@]5(C)CC[C@H](O)C(C)(C)[C@@H]5CC[C@]43C)[C@@H]12 [Compound 1, lup-20(29)-ene-3β, 28-diol]
[2]; [20]
  inhibition at 50 µM: 5.7 ± 2.1%
[3]; [21]
  inhibition at 50 µM: -6.7 ± 6.4%
[4]; [22]
  Inhibitory effect (%) C. albicans ATCC 90028: inactive
[4]; [23]
  inhibition at 50 µM: -27.5 ± 15%
[13]
  MIC against E. coli: 250 µg/mL (≈ 565 µM)
[14]
  MIC against S. aureus: 250 µg/mL (≈ 565 µM)
[6]; [24]
  Cytotoxicity (%) Huh-7 cells: 13.7±2.7%
[7]; [27]
  cytotoxicity at 24 h, 50 µM: 14%
[8]; [25]
  inhibition at 50 µM: -1.2 ± 2.5%
[15]
  Stability on storage: stable
[9]
  Inhibitory effect (%) E. faecalis ATCC 29212: 19.7±6.2%
[9]; Enterococcus faecalis
  inhibition at 50 µM: 20%
[16]
  MIC against P. aeruginosa: 250 µg/mL (≈ 565 µM)
[17]; ref 12
  MIC against C. albicans: 250 µg/mL (≈ 565 µM)
[17]; ref 41
  MIC against C. albicans: 180 µg/mL (≈ 407 µM)
[10]; [26]
  inhibition at 50 µM: 1.3 ± 5.1%
[18]
  MIC against S. pyogenes: 85 µg/mL (≈ 192 µM)

## C=C(C)[C@@H]1CC[C@]2(C(=O)O)CC[C@]3(C)C(CCC4[C@@]5(C)CCC(=O)C(C)(C)C5CC[C@]43C)C12 (some centres unmarked) [Compound 23, betulonic acid]
[2]; [20]
  inhibition at 50 µM: 21.8 ± 4.1%
[3]; [20]
  Inhibitory effect (%) S. aureus ATCC 25923: 51.1±7.3%
[3]; [21]
  inhibition at 50 µM: 51%
[4]; [23]
  inhibition at 50 µM: 25.2 ± 11%
[6]; human, 24 h
  Cytotoxicity (%) Huh-7 cells: 17.8±12.6%
[7]; Cytotoxicity (%) Huh-7 cells
  cytotoxicity at 24 h, 50 µM: 18%
[19]
  Activity in host-pathogen co-culture assay: 27%
[8]; [25]
  inhibition at 50 µM: 9.5 ± 2.5%
[9]
  Inhibitory effect (%) E. faecalis ATCC 29212: 74% and 74.3±0.8%
[9]; Enterococcus faecalis
  inhibition at 50 µM: > 70%
[10]; [26]
  inhibition at 50 µM: 9.1 ± 8.9%
